{"source": "patent US11976080B1", "about": "“Benzofuro[3,2-c]chromen-6-one compounds as antibacterial agents” (King Faisal University, priority 2023, dated 2024)", "key": {"[1]": {"tested_on": "Staphylococcus aureus ATCC 29213", "assay": "In vitro antibacterial activity (CLSI dilution MIC)", "format": "cell-based", "settings": "ATCC29213"}, "[2]": {"tested_on": "Pseudomonas aeruginosa MTCC 741", "assay": "In vitro antibacterial activity (CLSI dilution MIC)", "format": "cell-based", "settings": "MTCC741"}, "[3]": {"tested_on": "Bacillus subtilis MTCC 441", "assay": "In vitro antibacterial activity (CLSI dilution MIC)", "format": "cell-based", "settings": "MTCC441"}, "[4]": {"tested_on": "Staphylococcus epidermidis", "assay": "In vitro antibacterial activity (CLSI dilution MIC)", "format": "cell-based"}, "[5]": {"tested_on": "Enterococcus faecium ATCC 51559 (VRE resistant)", "assay": "In vitro antibacterial activity (CLSI dilution MIC)", "format": "cell-based"}, "[6]": {"tested_on": "Mycobacterium tuberculosis H37Rv strain", "assay": "Anti-tubercular alamar blue microplate MIC assay", "format": "cell-based", "settings": "168 h, 7 days, read-out: anti-mycobacterial activity (MIC)"}, "[7]": {"tested_on": "Escherichia coli MTCC 443", "assay": "In vitro antibacterial activity (CLSI dilution MIC)", "format": "cell-based", "settings": "MTCC443"}, "[8]": {"tested_on": "Staphylococcus aureus ATCC BAA-1556 (MERSA resistant)", "assay": "In vitro antibacterial activity (CLSI dilution MIC)", "format": "cell-based", "settings": "ATCCBAA1556"}, "[9]": {"tested_on": "Enterococcus faecium ATCC 35667", "assay": "In vitro antibacterial activity (CLSI dilution MIC)", "format": "cell-based", "settings": "ATCC35667"}, "[10]": {"target": "T1, DNA gyrase from E. coli (Escherichia coli, UniProt P0AES4+P0AES6)", "T1 construct": "purchased Inspiralis", "T1 sequence (P0AES4 whole entry, one chain of several)": "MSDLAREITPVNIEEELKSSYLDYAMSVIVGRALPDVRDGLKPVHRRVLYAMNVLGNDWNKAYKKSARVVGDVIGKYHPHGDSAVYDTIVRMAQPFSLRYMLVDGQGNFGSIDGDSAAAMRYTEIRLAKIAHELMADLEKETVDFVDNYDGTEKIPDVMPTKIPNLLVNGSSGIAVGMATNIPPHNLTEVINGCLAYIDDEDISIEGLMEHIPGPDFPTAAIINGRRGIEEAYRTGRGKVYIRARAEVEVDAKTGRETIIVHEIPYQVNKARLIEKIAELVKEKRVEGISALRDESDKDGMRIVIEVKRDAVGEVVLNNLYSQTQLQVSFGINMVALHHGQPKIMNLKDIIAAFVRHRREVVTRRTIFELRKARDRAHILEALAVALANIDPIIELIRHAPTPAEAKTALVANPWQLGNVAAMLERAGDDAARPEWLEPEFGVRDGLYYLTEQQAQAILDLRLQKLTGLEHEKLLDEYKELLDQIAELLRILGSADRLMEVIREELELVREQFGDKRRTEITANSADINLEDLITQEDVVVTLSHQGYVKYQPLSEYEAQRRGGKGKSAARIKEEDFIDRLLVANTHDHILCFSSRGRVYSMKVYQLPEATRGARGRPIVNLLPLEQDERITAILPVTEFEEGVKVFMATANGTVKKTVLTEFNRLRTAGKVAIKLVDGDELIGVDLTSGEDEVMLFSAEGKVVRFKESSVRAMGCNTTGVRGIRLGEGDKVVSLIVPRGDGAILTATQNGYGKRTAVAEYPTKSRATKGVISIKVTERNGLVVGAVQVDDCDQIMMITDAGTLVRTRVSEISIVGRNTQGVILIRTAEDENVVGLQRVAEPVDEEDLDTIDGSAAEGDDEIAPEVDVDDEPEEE", "assay": "Inspiralis E. coli DNA gyrase inhibition assay", "format": "biochemical", "protocol": "Inhibitory potencies were investigated utilizing the Inspiralis assay on streptavidin-coated 96-well microtiter plates. First, the plates were rehydrated with buffer (20 mM Tris-HCl with pH 7.6, 0.01% w/v BSA, 0.05% v/v Tween 20, 137 mM NaCl) and the biotinylated oligonucleotide was then immobilized. After washing off the unbound oligonucleotide, the enzyme test was performed. The reaction volume of 30 μL in buffer (35 mM Tris×HCl with pH 7.5, 4 mM MgCl2, 24 mM KCl, 2 mM DTT, 1.8 mM spermidine, 1 mM ATP, 6.5% w/v glycerol, 0.1 mg/mL albumin) contained 1.5 U of DNA gyrase from E. coli, 0.75 μg of relaxed pNO1 plasmid, and 3 μL solution of the inhibitor in 10% DMSO and 0.008% Tween 20. Reaction solutions were incubated at 37° C. for 30 min. After that, the TF buffer (50 mM NaOAc with pH 5.0, 50 mM NaCl and 50 mM MgCl2) was added to terminate the enzymatic reaction. After additional incubation for 30 min at rt, during which biotinoligonucleotide-plasmid triplex was formed, the unbound plasmid was washed off using TF buffer and SybrGOLD in T10 buffer (10 mM Tris HCl with pH 8.0 and 1 mM EDTA) was added. The fluorescence was measured with a microplate reader (BioTek Synergy H4, excitation: 485 nm, emission: 535 nm). Initial screening was done at 100 or 10 μM concentration of inhibitors. […] GraphPad Prism software was used to calculate the IC50 values. […]"}, "[11]": {"tested_on": "Klebsiella pneumonia MTCC 618", "assay": "In vitro antibacterial activity (CLSI dilution MIC)", "format": "cell-based", "settings": "Klebsiella pneumoniae, MTCC618"}}, "note": "Like-named read-outs stand apart in the source and are kept apart here."}
{"smiles": "CC(=O)Nc1ccc2oc3c4ccc(CC(=O)O)cc4oc(=O)c3c2c1", "note": "[Compound 5, 2-(8-acetamido-6-oxo-6H-benzofuro[3,2-c]chromen-3-yl)acetic acid]", "values": [{"measurement": "MIC", "setting": "[1]", "result": 1, "unit": "µg/mL"}, {"measurement": "MIC", "setting": "[2]; Pseudomonas aeruginosa MTCC 741, read-out: MIC", "result": 0.25, "unit": "µg/mL"}, {"measurement": "MIC", "setting": "[3]; Bacillus subtilis MTCC 441, read-out: MIC", "result": 0.55, "unit": "µg/mL"}, {"measurement": "MIC", "setting": "[4]", "result": 2, "unit": "µg/mL"}, {"measurement": "MIC", "setting": "[5]", "result": 0.5, "unit": "µg/mL"}, {"measurement": "MIC", "setting": "[6]", "result": 1, "unit": "µg/mL"}, {"measurement": "MIC", "setting": "[7]", "result": 0.75, "unit": "µg/mL"}, {"measurement": "MIC", "setting": "[8]", "result": 1, "unit": "µg/mL"}, {"measurement": "MIC", "setting": "[9]", "result": 0.55, "unit": "µg/mL"}, {"measurement": "IC50", "setting": "[10]", "result": 20, "unit": "nM"}, {"measurement": "MIC", "setting": "[11]; Klebsiella pneumonia MTCC 618, read-out: MIC", "result": 0.75, "unit": "µg/mL"}]}
{"smiles": "CN[C@H](CC(C)C)C(=O)N[C@H]1C(=O)N[C@@H](CC(N)=O)C(=O)N[C@H]2C(=O)N[C@H]3C(=O)N[C@H](C(=O)N[C@H](C(=O)O)c4cc(O)cc(O)c4-c4cc3ccc4O)[C@H](O)c3ccc(c(Cl)c3)Oc3cc2cc(c3O[C@@H]2O[C@H](CO)[C@@H](O)[C@H](O)[C@H]2O[C@H]2C[C@](C)(N)[C@H](O)[C@H](C)O2)Oc2ccc(cc2Cl)[C@H]1O", "note": "[Vancomycin, reference compound]", "values": [{"measurement": "MIC", "setting": "[2]; Pseudomonas aeruginosa", "result": "> 128", "unit": "µg/mL"}, {"measurement": "MIC", "setting": "[3]; Bacillus subtilis", "result": 0.5, "unit": "µg/mL"}, {"measurement": "MIC", "setting": "[11]", "result": "> 128", "unit": "µg/mL"}]}
